Test results as given in US20230250054A1, “SELECTIVE HISTONE DEACETYLASE 6 INHIBITORS” (The Board of Trustees of the University of Illinois, priority 2020, published 2023).

Tests used:
[1] = molecular target: T1, HDAC6 (Homo sapiens, UniProt Q9UBN7); test: Fluorescence-based HDAC inhibition assay, HDAC6; type: biochemical; conditions: Table 2
T1 construct: our assay that uses approximately 0.6 nM concentration of the full-length enzyme; made in house; host or cells: HEK293/T17 cells, transient transfection
T1 sequence (Q9UBN7 1-1215): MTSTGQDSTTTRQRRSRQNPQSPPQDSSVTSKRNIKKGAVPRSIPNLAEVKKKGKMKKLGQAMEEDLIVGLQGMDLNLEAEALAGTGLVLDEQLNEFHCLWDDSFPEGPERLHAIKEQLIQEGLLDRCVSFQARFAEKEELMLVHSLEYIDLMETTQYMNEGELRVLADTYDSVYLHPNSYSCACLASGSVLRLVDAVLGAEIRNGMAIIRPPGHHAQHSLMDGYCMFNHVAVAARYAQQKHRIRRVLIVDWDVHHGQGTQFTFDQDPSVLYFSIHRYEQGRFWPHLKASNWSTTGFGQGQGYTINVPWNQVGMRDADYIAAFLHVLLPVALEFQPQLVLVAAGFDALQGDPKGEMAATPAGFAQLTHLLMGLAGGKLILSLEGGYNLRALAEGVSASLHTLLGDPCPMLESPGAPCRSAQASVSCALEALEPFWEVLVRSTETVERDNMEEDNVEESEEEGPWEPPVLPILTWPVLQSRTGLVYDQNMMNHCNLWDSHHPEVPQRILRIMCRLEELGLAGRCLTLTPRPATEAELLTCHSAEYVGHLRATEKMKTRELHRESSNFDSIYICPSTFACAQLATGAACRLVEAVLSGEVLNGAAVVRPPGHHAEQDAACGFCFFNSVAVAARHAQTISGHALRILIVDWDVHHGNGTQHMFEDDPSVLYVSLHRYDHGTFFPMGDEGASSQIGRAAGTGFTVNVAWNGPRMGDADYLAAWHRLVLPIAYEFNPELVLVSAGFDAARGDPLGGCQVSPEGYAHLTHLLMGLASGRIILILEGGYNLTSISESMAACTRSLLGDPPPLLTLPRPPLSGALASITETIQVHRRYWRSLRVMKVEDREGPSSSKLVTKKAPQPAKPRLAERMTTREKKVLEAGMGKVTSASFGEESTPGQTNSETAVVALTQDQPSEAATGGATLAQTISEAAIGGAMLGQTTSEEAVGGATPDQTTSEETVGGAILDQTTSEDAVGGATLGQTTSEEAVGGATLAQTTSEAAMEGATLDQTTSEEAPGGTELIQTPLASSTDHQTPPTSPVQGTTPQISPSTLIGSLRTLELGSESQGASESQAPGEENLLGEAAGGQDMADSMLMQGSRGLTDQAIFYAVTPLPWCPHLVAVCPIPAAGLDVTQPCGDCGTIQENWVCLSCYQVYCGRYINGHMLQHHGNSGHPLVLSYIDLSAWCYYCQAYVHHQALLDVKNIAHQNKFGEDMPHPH
Procedure: (§1) Briefly, transiently transfected cells were harvested three days post-transfection and the cell pellets resuspended in a lysis buffer (50 mM Tris, 150 mM NaCl, 10 mM KCl, 2 mM MgCl2, 10% glycerol, 0.2% NP-40, 2 Units/mL benzonase, pH 8) supplemented with a cocktail of protease inhibitors (Roche, Basel, Switzerland). Cells were lysed by sonication (30 W; 3×20 s) on ice, and the cell lysate cleared by centrifugation at 40 000×g for 30 min at 4° C. […] Purified proteins were concentrated to 1 mg/mL, aliquoted, flash-frozen in liquid nitrogen, and stored at −80° C. until further use.
(§2) Briefly, individual HDACs were preincubated with dilution series of tested inhibitors (0-100 μM) in a 384-well plate in the total volume of 40 μL for 10 min at 37° C. in a reaction buffer comprising 50 mM HEPES, 140 mM NaCl, 10 mM KCl, 1 mM TCEP, 0.1% BSA, pH 7.4. Deacetylation reaction was started by the addition of 10 μL of a 10 μM substrate into the HDAC/inhibitor mixture. Following the 30 min incubation at 37° C., the reaction was terminated by the addition of 25 μL of the trypsin solution (4 mg/mL). Fluorescence development by trypsin was carried out at 37° C. for 15 and 60 min for Ac-GAK(Ac)-AMC and Boc-Lys(TFA)-AMC substrate, respectively. […] Non-linear regression analysis was employed to calculate IC50 values using the GraphPad Prism software. […] Reactions without the enzyme or the inhibitor were used to define 0% and 100% of the HDAC activity, respectively.

[2] = molecular target: T2, HDAC1 (Homo sapiens, UniProt Q13547); test: Fluorescence-based HDAC inhibition assay, HDAC1; type: biochemical; conditions: ratio HDAC1 IC50 / HDAC6 IC50, Table 2
T2 construct: made in house; host or cells: HEK293/T17 cells, transient transfection
T2 sequence (Q13547 whole entry): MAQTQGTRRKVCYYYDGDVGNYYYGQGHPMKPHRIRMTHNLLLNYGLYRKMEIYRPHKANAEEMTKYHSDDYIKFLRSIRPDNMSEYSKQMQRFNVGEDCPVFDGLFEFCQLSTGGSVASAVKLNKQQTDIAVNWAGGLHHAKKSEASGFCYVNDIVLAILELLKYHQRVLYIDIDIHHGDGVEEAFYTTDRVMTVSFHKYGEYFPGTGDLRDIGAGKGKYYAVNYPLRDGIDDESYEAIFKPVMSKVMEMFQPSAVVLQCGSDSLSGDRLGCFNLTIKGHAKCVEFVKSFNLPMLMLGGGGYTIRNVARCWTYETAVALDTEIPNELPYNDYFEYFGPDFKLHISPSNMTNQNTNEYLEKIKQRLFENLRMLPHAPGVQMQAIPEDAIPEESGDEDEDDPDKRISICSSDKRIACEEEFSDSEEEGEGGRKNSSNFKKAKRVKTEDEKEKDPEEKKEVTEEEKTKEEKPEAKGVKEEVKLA
Procedure: as §1, §2

Q: How did the IC50 [1] turn out when NCc1ccc(NC(=O)N(CCCCO)Cc2ccc(B(O)O)cc2)cc1 [Compound 6f, (4-((3-(4-(Aminomethyl)phenyl)-1-(4-hydroxybutyl)ureido)methyl)phenyl)boronic acid] was run?
A: The IC50 was greater than 30 µM.

Q: With NCc1ccc(NC(=O)N(CCCCO)Cc2ccc(C(N)=O)cc2)cc1 [Compound 6e, 4-((3-(4-(Aminomethyl)phenyl)-1-(4-hydroxybutyl)ureido)methyl)benzamide] as the molecule, how does the IC50 [1] read?
A: Its IC50 is greater than 30 µM.

Q: Which HDAC1/6 [2] does the source give for O=C(CCCCCCC(=O)Nc1ccccc1)NO [Vorinostat, reference compound] here?
A: Its HDAC1/6 is 5.

Q: With NCc1ccc(NC(=O)N(CCCCO)Cc2ccc(C(=O)O)cc2)cc1 [Compound 6d, 4-((3-(4-(Aminomethyl)phenyl)-1-(4-hydroxybutyl)ureido)methyl)benzoic acid] as the molecule, how does the IC50 [1] read?
A: Its IC50 is 16.8 µM.
